Structure (SMILES)	melting point
Cc1oc2ccc(NC(=O)c3cccs3)nc2c1CCN(C)C.O=C(O)C(=O)O	211 to 212 °C
Cc1oc2ccc(NC(=O)c3ccccc3)nc2c1CCN(C)C	119 to 120 °C
CN(C)CCc1coc2ccc(NC(=O)c3ccccc3)nc12.O=C(O)C(=O)O	65 to 66 °C
Cc1oc2ccc(NC(=O)c3ccc(F)cc3)nc2c1CCN(C)C.O=C(O)C(=O)O	136 to 138 °C
CCC(=O)Nc1ccc2oc(C)c(CCN(C)C)c2n1.O=C(O)C(=O)O	168 to 170 °C
CCC(=O)Nc1ccc2occ(CCN(C)C)c2n1.O=C(O)C(=O)O	153 to 155 °C
CN(C)CCc1coc2ccc(NC(=O)c3ccc(F)cc3)nc12.O=C(O)C(=O)O	124 to 126 °C
CN(C)CCc1coc2ccc(NC(=O)c3cccs3)nc12.O=C(O)C(=O)O	68 to 69 °C

From patent publication US6696439B1, “5-HT1F agonists” (Eli Lilly and Company, priority 1999, dated 2004)
